The values that follow come from ChEMBL document CHEMBL2057122, “Synthesis and positive inotropic evaluation of N-(1-oxo-1,2,4,5-tetrahydro-[1,2,4]triazolo[4,3-a]quinolin-7-yl)acetamides bearing piperazine and 1,4-diazepane moieties” (Bioorg Med Chem Lett, 2012).

Active and inactive are the calls of the source. The calls are words filed in the database; no cut-off is given here.

The species entered for data set [1] is Oryctolagus cuniculus. Nature of the data set: (§1) Positive inotropic effect in New Zealand White rabbit left atrium assessed as increase in stroke volume at 3 X 10^-5 M by electrocardiogram analysis. Format: functional. As to conditions: Cardiac atrium.
Data set [2] is described as follows: as §1. Format: functional, Oryctolagus cuniculus, Cardiac atrium.
Data set [3] is filed under the species Oryctolagus cuniculus. Nature of the data set: Positive inotropic effect in New Zealand White rabbit beating left atrium assessed as increase in stroke volume at 30 uM/L by electrocardiogram analysis. Format: functional, tissue-based. As to conditions: Cardiac atrium.
A short description of data set [4]: Chronotropic effect in New Zealand White rabbit left atrium assessed as change in heart rate by electrocardiogram analysis relative to control. Format: tissue-based, Oryctolagus cuniculus, Cardiac atrium.
Data set [5] is filed under the species Oryctolagus cuniculus. Nature of the data set: Positive inotropic effect in New Zealand White rabbit left atrium assessed as increase in stroke volume at 1 X 10^-4 M by electrocardiogram analysis. In kind it is functional, tissue-based. As to conditions: Cardiac atrium.

As for `O=C(CN1CCN(Cc2ccc(Br)cc2)CC1)Nc1ccc2c(c1)CCc1n[nH]c(=O)n1-2`, in data set [1], the outcome was inactive.

In the case of `Cc1ccc(CN2CCN(CC(=O)Nc3ccc4c(c3)CCc3n[nH]c(=O)n3-4)CC2)cc1`, the Activity in data set [2] is reported as 5.48%. Further, in data set [3], the outcome was inactive.

Regarding `O=C(CN1CCN(Cc2ccccc2Br)CC1)Nc1ccc2c(c1)CCc1n[nH]c(=O)n1-2`, the result in data set [1] was inactive.

For `O=C(CN1CCCN(Cc2cccc(Cl)c2)CC1)Nc1ccc2c(c1)CCc1n[nH]c(=O)n1-2`, the Activity in data set [4] amounted to 120.84 bpm; in data set [2] it was 6.41%. Also, in data set [3], the result was inactive.

As to `O=C(CN1CCCN(Cc2ccccc2)CC1)Nc1ccc2c(c1)CCc1n[nH]c(=O)n1-2`, the Activity in data set [4] is reported as 90.01 bpm; in data set [2] it was 9.07%. Besides, in data set [3], the outcome was inactive.

Regarding `O=C(CN1CCN(Cc2ccc(F)cc2)CC1)Nc1ccc2c(c1)CCc1n[nH]c(=O)n1-2`, the result in data set [1] was inactive.

As for `O=C(CN1CCN(Cc2ccccc2F)CC1)Nc1ccc2c(c1)CCc1n[nH]c(=O)n1-2`, the Activity in data set [2] turned out to be 1.82%.

Consider `O=C(CN1CCN(Cc2ccc(Cl)cc2)CC1)Nc1ccc2c(c1)CCc1n[nH]c(=O)n1-2`, for which the Activity in data set [2] was found to be 3.09%. In addition, in data set [3], the result was inactive.

For the molecule `O=C(CN1CCN(Cc2cccc(Cl)c2)CC1)Nc1ccc2c(c1)CCc1n[nH]c(=O)n1-2`, the Activity in data set [2] came to 3.46%. In addition, in data set [3], the result was inactive.

Regarding `O=C(CN1CCN(Cc2c(Cl)cccc2Cl)CC1)Nc1ccc2c(c1)CCc1n[nH]c(=O)n1-2`, in data set [1], the result was inactive.

For `O=C(CN1CCN(Cc2ccccc2)CC1)Nc1ccc2c(c1)CCc1n[nH]c(=O)n1-2`, in data set [2], the Activity is given as 3.56%. In addition, the result in data set [3] was inactive.

As to `O=C(CN1CCN(C/C=C/c2ccccc2)CC1)Nc1ccc2c(c1)CCc1n[nH]c(=O)n1-2`, the Activity in data set [4] is listed as 99.89 bpm; in data set [2], 9.4%. Further, the result in data set [3] and in data set [5] was inactive.

As for `Cc1ccc(CN2CCCN(CC(=O)Nc3ccc4c(c3)CCc3n[nH]c(=O)n3-4)CC2)cc1`, the results for the Activity in data set [4] and in data set [2] were 111.86 bpm and 6.75%, respectively. Besides, the result in data set [3] was inactive.

As for `O=C(CN1CCN(Cc2ccccc2Cl)CC1)Nc1ccc2c(c1)CCc1n[nH]c(=O)n1-2`, the Activity in data set [2] is 4.01%. Moreover, in data set [3], the outcome was inactive.

As for `COc1cc(CN2CCN(CC(=O)Nc3ccc4c(c3)CCc3n[nH]c(=O)n3-4)CC2)ccc1OCc1ccc(Cl)cc1`, in data set [2], the Activity is recorded as 2.22%.

In the case of `Cc1[nH]c(=O)c(C#N)cc1-c1ccncc1` [MILRINONE], the Activity in data set [2] was 2.46%. The result in data set [3] was inactive.

In the case of `O=C(CN1CCCN(Cc2ccccc2Cl)CC1)Nc1ccc2c(c1)CCc1n[nH]c(=O)n1-2`, the Activity in data set [4] amounted to 118.36 bpm; in data set [2], 8.98%. Also, in data set [3], the result was inactive.

For the molecule `COc1cc(CN2CCN(CC(=O)Nc3ccc4c(c3)CCc3n[nH]c(=O)n3-4)CC2)ccc1OCc1ccccc1`, the Activity in data set [2] worked out at 2.26%.

For `O=C(CN1CCN(Cc2cccc(F)c2)CC1)Nc1ccc2c(c1)CCc1n[nH]c(=O)n1-2`, in data set [1], the outcome was inactive.

As to `COc1ccc(CN2CCN(CC(=O)Nc3ccc4c(c3)CCc3n[nH]c(=O)n3-4)CC2)cc1`, the Activity in data set [2] stood at 1.46%.

Consider `O=C(CN1CCCN(Cc2ccc(Cl)cc2)CC1)Nc1ccc2c(c1)CCc1n[nH]c(=O)n1-2`, for which the Activity stood at 121.68 bpm in data set [4] and 15.48% in data set [2]. Further, the result in data set [3] and in data set [5] was inactive.

As for `O=C(CN1CCN(Cc2cccc(Br)c2)CC1)Nc1ccc2c(c1)CCc1n[nH]c(=O)n1-2`, in data set [1], the result was inactive.
